{"source": "paper PMC9788418", "about": "“Design, Synthesis and Biological Evaluation of Syn and Anti-like Double Warhead Quinolinones Bearing Dihydroxy Naphthalene Moiety as Epidermal Growth Factor Receptor Inhibitors with Potential Apoptotic Antiproliferative Action” (Molecules, 2022)", "key": {"[1]": {"tested_on": "Cytochrome C", "assay": "Cytochrome C assay", "type": "cell-based, human", "procedure": "The concentration of Cytochrome c in a cell is crucial for activating caspases and starting the intrinsic apoptosis process. […]\n(§1) plate cover and incubate at room temperature, on a microplate shaker at 100 rpm if available, for 1 hour. Remove plate cover and empty the wells. Wash microwell strips 3 times as described in step 2.\n(§2) Proceed to the next step. Pipette 100 μl of mixed TMB Substrate Solution to all wells, including the […]\n(§3) available on a rotator set at 100 rpm. Avoid direct exposure to intense light. The point, at which the substrate reaction is stopped, is often determined by the ELISA reader. Many ELISA readers record absorbance only up to 2.0 O.D. Therefore, the color development within individual microwells must be watched by the person running the assay and the substrate reaction stopped before positive wells are no longer properly detectable. Stop the enzyme reaction by quickly pipetting 100 μL of Stop Solution into each well, including the blank wells. It is important that the Stop Solution is spread quickly and uniformly throughout the microwells to completely inactivate the enzyme. Results must be read immediately after the Stop Solution is added or within one hour if the microwell strips are stored at 2 - 8°C in the dark. Read absorbance of each microwell on a spectrophotometer using 450 nm as the primary wave length.\n4.2.6. Cytochrome C assay […]\ncytochrome C, and lysed with Cell Extraction Buffer. This lysate was diluted in Standard Diluent Buffer over the range of the assay and measured for cytochrome C content. (Cells are Plated in cells/well in a volume of 100µl complete growth medium + 100 µl of the tested compound + 50 µl of 1X biotin conjugated antibody+ 100 µl of 1X streptavidin-HRP+ 100 µL TMB substrate soln of per well in a 96-well plate for 24 hours before assay).\n4.3. Statistical analysis\nComputerized Prism 5 program was used to statistically analyzed data using one-way ANOVA test followed by Tukey’s as post ANOVA for multiple comparison at P ≤.05. Data were presented as […]"}, "[2]": {"tested_on": "caspase-8", "assay": "Caspase-8 activation assay", "type": "cell-based, human"}, "[3]": {"tested_on": "Bax", "assay": "Bax activation assay", "type": "cell-based, human", "conditions": "for Bax Conc: A-549", "procedure": "8, and lysed with Cell Extraction Buffer. This lysate was diluted in Standard Diluent Buffer over the range of the assay and measured for human active caspase-8 content. (cells are Plated in a density of 1.2 – 1.8 × 10,000 cells/well in a volume of 100µl complete growth medium + 100 ul of the tested compound per well in a 96-well plate for 24 hours before the enzyme assay for […].). […]\n4.2.4. Bax activation assay\nBring all reagents, except the human Bax-α Standard, to room temperature for at least 30 minutes prior to opening. The human Bax-α Standard solution should not be left at room temperature for more than 10 minutes. All standards, controls and samples should be run in duplicate. Refer to the Assay Layout Sheet to determine the number of wells to be used and put any remaining wells with the desiccant back into the pouch and seal the ziploc. Store unused wells at 4 °C. Pipet 100 μL of Assay Buffer into the S0 (0 pg/mL standard) wells. Pipet 100 μL of Standards #1 through #6 into the appropriate wells. Pipet 100 μL of the Samples into the appropriate wells. Tap the plate gently to mix the contents. Seal the plate and incubate at room temperature on a plate shaker for 1 hour at ~500 rpm. Empty the contents of the wells and wash by adding 400 μL of wash solution to every well.\nRepeat the wash 4 more times for a total of 5 washes. After the final wash, empty or aspirate the wells and firmly tap the plate on a lint free paper towel to remove any remaining wash buffer. Pipet 100 μL of yellow Antibody into each well, except the Blank. Seal the plate and incubate at room temperature on a plate shaker for 1 hour at ~500 […]\nwells and firmly tap the plate on a lint free paper towel to remove any remaining wash buffer. Add […]\n100 μL of blue Conjugate to each well, except the Blank. Seal the plate and incubate at room temperature on a plate shaker for 30 minutes at ~500 rpm. Empty the contents of the wells and wash by adding 400 μL of wash solution to every well. Repeat the wash 4 more times for a total of 5 washes. After the final wash, empty or aspirate the wells and firmly tap the plate on a lint free paper towel to remove any remaining wash buffer. Pipet 100 μL of Substrate Solution into each well.\nIncubate for 30 minutes at room temperature on a plate shaker at ~500 rpm. Pipet 100 μL Stop Solution to each well. Blank the plate reader against the Blank wells, read the optical density at 450 nm. Calculate the average net Optical Density (OD) bound for each standard and sample by subtracting the average Blank OD from the average OD for each standard and sample. Using linear graph paper, plot the Average Net OD for each standard versus Bax concentration in each standard.\nApproximate a straight line through the points. The concentration of Bax in the unknowns can be determined by interpolation. […]"}, "[4]": {"tested_on": "caspase-3", "assay": "Caspase-3 activation assay"}, "[5]": {"tested_on": "caspase-9", "assay": "Caspase-9 level assay", "type": "cell-based, human", "procedure": "The impact of compounds 4a and 4b on caspase-8 and caspase-9 was also assessed to clarify how compounds 4a and 4b induce apoptosis by activating the intrinsic or extrinsic route."}, "[6]": {"tested_on": "Bcl-2", "assay": "Bcl-2 inhibition assay", "type": "cell-based, human", "procedure": "4.2.5. Bcl-2inhibition assay\nMix all reagents thoroughly without foaming before use. Wash the microwells twice with approximately 300 μL Wash Buffer per well with thorough aspiration of microwell contents between washes. Take caution not to scratch the surface of the microwells. After the last wash, empty the wells and tap microwell strips on absorbent pad or paper towel to remove excess Wash Buffer. Use the microwell strips immediately after washing or place upside down on a wet absorbent paper for not […]\nlonger than 15 minutes. […] Add 100 μL of Sample Diluent in duplicate to all standard wells and to the blank wells. Prepare standard (1:2 dilution) in duplicate ranging from 32 ng/mL to 0.5 ng/mL. Add 100 μL of Sample Diluent, in duplicate, to the blank wells. Add 80 μL of Sample Diluent, in duplicate, to the sample wells. Add 20 μL of each Sample, in duplicate, to the designated wells. Add 50 μL of diluted biotin-conjugate to all wells, including the blank wells. Cover […]\nRemove plate cover and empty the wells. […]\nas §1, §2\nas §3, with “length. […]” for “length.”"}, "[7]": {"conditions": "A-549, vs control untreated cells"}}, "data": [{"smiles": "COc1cccc2c1C(=O)c1c(O)c3c(c(O)c1C2=O)C[C@@](O)(C(=O)CO)C[C@@H]3O[C@H]1C[C@H](N)[C@H](O)[C@H](C)O1", "note": "[Doxorubicin, reference compound]", "values": [{"measurement": "Cytochrome C Conc", "setting": "[1]; A-549", "result": 0.60, "unit": "ng/mL"}, {"measurement": "Cytochrome C Fold Change", "setting": "[1]; A-549, vs control", "result": 12}, {"measurement": "Caspase-8 Conc", "setting": "[2]", "result": 1.80, "unit": "ng/mL"}, {"measurement": "Caspase-8 Fold Change", "setting": "[2]; vs control cells", "result": 9}, {"measurement": "Bax Conc", "setting": "[3]", "result": 276.20, "unit": "pg/mL"}, {"measurement": "Bax Fold Change", "setting": "[3]; [7]", "result": 33}, {"measurement": "Bax Conc", "setting": "[3]; listed as doxorubicin", "result": 276, "unit": "pg/mL"}, {"measurement": "Caspase-3 Conc", "setting": "[4]; A-549", "result": "503.25 ± 4.50", "unit": "pg/mL"}, {"measurement": "Caspase-3 Fold Change", "setting": "[4]; [7]", "result": 7.70}, {"measurement": "Caspase-9 Conc", "setting": "[5]", "result": 16.25, "unit": "ng/mL"}, {"measurement": "Caspase-9 Fold Change", "setting": "[5]; vs control cells", "result": 17.00}, {"measurement": "Bcl-2 Conc", "setting": "[6]; A-549", "result": 1.98, "unit": "ng/mL"}, {"measurement": "Bcl-2 Fold Reduction", "setting": "[6]; A-549, vs control", "result": 2.5}]}]}
